In patent US20240255506A1, “PAIRED-CELL PROFILING SYSTEMS FOR HIGH-THROUGHPUT SCREENING SYNCYTIUM FORMATION” (priority 2023, published 2024):

Experiments:
[1] = tested on: SARS-COV-2-induced syncytium formation in Vero E6 cells; details: drug screen with more than 3,000 approved drugs (ref. 19); cited from earlier work
[2] = tested on: SARS-COV-2 spike-induced syncytium formation in A549-ACE2 cells; format: cell-based; details: A549-ACE2-GFP1-10 cells pre-incubated with drug 20 min in FBS-free medium, then mixed with 293T-spike-GFP11-mCherry cells, 24 h
[3] = tested on: SARS-COV-2; details: Vero E6 cells; previous study (ref. 25); cited from earlier work

Row | Structure (SMILES) | SARS-COV-2-induced syncytium formation [1] | cell-cell fusion process (syncytium formation) [2] | SARS-COV-2-induced cytotoxicity [3]
1 | COCCCC/C(=N\OCCN)c1ccc(C(F)(F)F)cc1 [fluvoxamine] | some inhibitory effects |  | 
2 | O=C1NC(=NS(=O)(=O)c2cccc3ccccc23)S/C1=C\c1ccc(Br)cc1 [Pitstop 2] |  | suppressed the cell-cell fusion process | 
3 | CC(CN1c2ccccc2Sc2ccccc21)N(C)C (stereo not shown) [promethazine] | some inhibitory effects |  | reduces SARS-COV-2-induced cytotoxicity
